Test results taken from BindingDB's records for doi:10.1021/jm00142a026 (1981).

Target: Beta-1/Beta-2/Beta-3 adrenergic receptor (Rattus norvegicus, UniProt P10608+P18090+P26255)
Test: Binding affinity against Beta adrenergic receptor using [3H]dihydroalprenolol radioligand in rat brain homogenate

Chain of Beta-1/Beta-2/Beta-3 adrenergic receptor (P18090 whole entry): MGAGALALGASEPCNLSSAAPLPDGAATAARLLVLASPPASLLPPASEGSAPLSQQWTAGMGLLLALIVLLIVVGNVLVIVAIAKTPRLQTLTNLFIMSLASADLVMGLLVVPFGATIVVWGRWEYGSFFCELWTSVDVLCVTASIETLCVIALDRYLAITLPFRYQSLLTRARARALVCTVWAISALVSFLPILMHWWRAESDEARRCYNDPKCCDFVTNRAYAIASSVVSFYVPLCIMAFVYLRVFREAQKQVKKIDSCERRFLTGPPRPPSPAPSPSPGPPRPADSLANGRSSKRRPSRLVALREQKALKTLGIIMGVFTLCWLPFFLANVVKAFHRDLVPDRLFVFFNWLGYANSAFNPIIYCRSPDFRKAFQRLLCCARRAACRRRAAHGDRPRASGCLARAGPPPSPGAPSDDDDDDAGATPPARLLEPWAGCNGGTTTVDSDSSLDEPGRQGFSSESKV
Chain of Beta-1/Beta-2/Beta-3 adrenergic receptor (P26255 whole entry): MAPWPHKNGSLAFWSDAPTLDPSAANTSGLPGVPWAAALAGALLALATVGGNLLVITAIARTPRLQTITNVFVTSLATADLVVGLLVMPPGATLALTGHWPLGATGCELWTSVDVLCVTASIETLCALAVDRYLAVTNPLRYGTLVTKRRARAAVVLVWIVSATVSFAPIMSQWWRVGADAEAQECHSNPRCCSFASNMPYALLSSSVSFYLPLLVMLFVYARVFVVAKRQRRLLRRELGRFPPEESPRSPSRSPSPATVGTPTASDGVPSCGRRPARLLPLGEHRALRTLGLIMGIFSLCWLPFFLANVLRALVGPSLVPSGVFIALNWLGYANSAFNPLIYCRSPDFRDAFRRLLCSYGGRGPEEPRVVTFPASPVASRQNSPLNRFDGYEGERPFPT
Chain of Beta-1/Beta-2/Beta-3 adrenergic receptor (P10608 whole entry): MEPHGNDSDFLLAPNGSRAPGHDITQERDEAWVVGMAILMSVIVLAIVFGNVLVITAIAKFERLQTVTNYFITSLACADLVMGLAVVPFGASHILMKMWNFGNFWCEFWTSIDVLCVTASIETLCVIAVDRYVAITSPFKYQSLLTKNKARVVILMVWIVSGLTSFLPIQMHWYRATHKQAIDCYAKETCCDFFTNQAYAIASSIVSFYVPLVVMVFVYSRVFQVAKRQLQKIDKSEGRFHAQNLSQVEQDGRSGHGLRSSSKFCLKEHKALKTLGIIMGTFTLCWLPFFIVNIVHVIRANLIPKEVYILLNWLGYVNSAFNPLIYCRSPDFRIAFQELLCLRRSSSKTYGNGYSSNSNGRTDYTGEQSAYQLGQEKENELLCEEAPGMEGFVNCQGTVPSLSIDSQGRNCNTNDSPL

IC50 [µM] | SMILES
110 | CNCC(c1ccc(O)c(O)c1)S(=O)(=O)O (configuration not stated)
130 | NCC(c1ccc(O)c(O)c1)S(=O)(=O)O (configuration not stated)
